Data: patent US4511559A, “Biologically active polysaccharide concentrates and process for production of preparates containing such substances” (Kozponti Valto-es Hitelbank Rt. InnovacioAlap, priority 1982, dated 1985)
Where two headings read alike, the source gives them in different places.

Legend:
[1] = tested on: rat paw carrageenan oedema; test: rat paw carrageenan oedema test (anti-inflammatory activity); assay type: in vivo; conditions: for Anti-inflammatory activity %: table 4; for ED50: Rattus norvegicus, po, reference standard
Description: (§1) The anti-inflammatory activity of the polysaccharide concentrates produced according to the invention was investigated on the rat paw carrageenan oedema test according to Winter et al. [Proc. Soc. Exp. Biol. Med. 111. 544. (1962)]. The concentrate has a significant specific activity and in connection with its advantageous anti-inflammatory activity it posseses a remarkably low toxicity.

[2] = tested on: rat; test: in vivo; conditions: table 4
Method: (§2) The anti-inflammatory activity of the polysaccharide concentrate according to the invention was investigated intraperitoneally on rat according to the paw carrageenan oedema test. Simultaneously the LD50 values of the polysaccharide concentrates (i.p.) were determined.
(§3) The anti-inflammatory activity of the prepared polysaccharide concentrates was determined in comparison to the indomethancin as well using the rat paw carrageenan oedema test. The polysaccharide sample was intraperitoneally injected one hour before the inflammation inducing carrageenan. As reference standard per os applied indomethacin was used, which was suspended in 1% methylcellulose solution, and given through a gastric tube into the stomach one hour prior to the administration of Carrageenan to CFY rats and CFLP mice. The dosage was the same during the toxicity studies as well.
(§4) To develop the PG phase 5 hours are required from the injection of the inflammation inducing carrageenan.

[3] = in vivo; conditions: rat, in vivo, po, LD50, p.o.
Method: as §2, §3, §4

[4] = rat paw carrageenan oedema test (anti-inflammatory activity); assay type: in vivo; conditions: rat, in vivo, po, read-out: Therapeutic index LD50/ED50
Description: as §1

[5] = tested on: adjuvans arthritis in rat; test: adjuvans arthritis in rat (chronic inflammation model); assay type: in vivo; conditions: 50 mg/kg, intraperitoneal, 3 weeks
Description: The polysaccharides produced according to the invention show significant effectivity on chronic inflammation models too, for example on adjuvans arthritis in rat, at intraperitoneal treatment for 3 weeks: […]

Row | SMILES | Anti-inflammatory activity % ([1]; 400 mg/kg p.o.) [%] | Dose/LD50 ratio ([2]; dose 400 mg/kg p.o.) | LD50 ([3]; table 4) [mg/kg] | selectivity ratio ([4]; 2 hours) | selectivity ratio ([4]; 5 hours) | Anti-inflammatory activity % ([1]; 10 mg/kg p.o.) [%] | ED50 ([1]; 2 hours) [mg/kg] | ED50 ([1]; 5 hours) [mg/kg] | Dose/LD50 ratio ([2]; dose 10 mg/kg p.o.) | LD50 ([3]; table 2) [mg/kg] | Anti-inflammatory activity % ([1]; 90 mg/kg p.o.) [%] | inhibition ([1]; 100 mg/kg, standard) [%] | Inhibiton ([1]; intraperitoneally, rat, 100 mg/kg) [%] | Anti-inflammatory activity % [5] [%]
1 | CC(=O)Oc1ccccc1C(=O)O [Aspyrine] | 36 | 0.330 | 1200 |  |  |  |  |  |  |  |  |  |  | 
2 | COc1ccc2c(c1)c(CC(=O)O)c(C)n2C(=O)c1ccc(Cl)cc1 [Indomethacin, indomethacin] |  |  | 17 | 10.2 | 14.5 | 51 | 3.14 | 2.2 | 0.580 | 32 |  |  |  | 
3 | CCCCC1C(=O)N(c2ccccc2)N(c2ccccc2)C1=O [Phenylbutazone, phenylbutazone] |  |  |  |  |  |  |  |  |  |  | 40 | 45 | 45.0 | 64
